Test results published in US9481676B2, “Azepino[4,5-B]indoles and methods of use” (Medivation Technologies, Inc., priority 2008, dated 2016).

How the values were obtained:
[1] = molecular target: T1, human recombinant histamine H1 receptor (Homo sapiens, UniProt P35367); experiment: Histamine H1 radioligand binding ([3H]Pyrilamine); details: compound at 1 μM; read-out: Histamine Binding (1 μM) H1, percent inhibition of specific binding
T1 construct: expressed in transfected cells; host or cells: CHO cells
T1 sequence (P35367 whole entry): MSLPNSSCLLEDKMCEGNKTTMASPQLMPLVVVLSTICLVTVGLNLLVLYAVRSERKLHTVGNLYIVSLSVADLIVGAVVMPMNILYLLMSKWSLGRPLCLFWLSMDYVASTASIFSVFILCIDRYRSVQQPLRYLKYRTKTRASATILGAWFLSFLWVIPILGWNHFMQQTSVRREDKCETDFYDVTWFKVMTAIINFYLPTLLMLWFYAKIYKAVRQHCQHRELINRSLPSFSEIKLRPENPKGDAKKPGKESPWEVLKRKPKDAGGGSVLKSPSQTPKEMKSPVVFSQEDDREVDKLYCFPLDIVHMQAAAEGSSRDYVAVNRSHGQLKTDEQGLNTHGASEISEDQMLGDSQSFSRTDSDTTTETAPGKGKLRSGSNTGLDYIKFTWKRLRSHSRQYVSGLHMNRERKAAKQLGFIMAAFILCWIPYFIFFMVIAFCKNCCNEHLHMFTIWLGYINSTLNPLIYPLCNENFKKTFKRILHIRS
Method: To evaluate in radioligand binding assays the activity of compounds of the invention, human recombinant histamine H1 receptor expressed in Chinese hamster ovary (CHO) cells (De Backer, M. D. et al., Biochem. Biophys. Res. Comm. 197(3):1601, 1993) in a modified Tris-HCl buffer (50 mM Tris-HCl, pH 7.4, 2 mM MgCl2, 100 mM NaCl, 250 mM Sucrose) was used. Compounds of the invention were incubated with 1.2 nM [^3H]Pyrilamine for 180 min. at 25° C. Non-specific binding was estimated in the presence of 1 μM pyrilamine. Receptor proteins were filtered and washed, the filters were then counted to determine [^3H]Pyrilamine specifically bound. Compounds were screened at 1 μM or lower, using 1% DMSO as vehicle. Biochemical assay results are presented as the percent inhibition of specific binding in Table 6.

[2] = molecular target: T2, human recombinant dopamine D2L receptor (Homo sapiens, UniProt P14416); experiment: Dopamine D2L radioligand binding ([3H]Spiperone); details: compound at 1 μM; read-out: Dopamine (1 μM) D2L, percent inhibition of specific binding
T2 construct: expressed in transfected cells; host or cells: CHO cells
T2 sequence (P14416 whole entry): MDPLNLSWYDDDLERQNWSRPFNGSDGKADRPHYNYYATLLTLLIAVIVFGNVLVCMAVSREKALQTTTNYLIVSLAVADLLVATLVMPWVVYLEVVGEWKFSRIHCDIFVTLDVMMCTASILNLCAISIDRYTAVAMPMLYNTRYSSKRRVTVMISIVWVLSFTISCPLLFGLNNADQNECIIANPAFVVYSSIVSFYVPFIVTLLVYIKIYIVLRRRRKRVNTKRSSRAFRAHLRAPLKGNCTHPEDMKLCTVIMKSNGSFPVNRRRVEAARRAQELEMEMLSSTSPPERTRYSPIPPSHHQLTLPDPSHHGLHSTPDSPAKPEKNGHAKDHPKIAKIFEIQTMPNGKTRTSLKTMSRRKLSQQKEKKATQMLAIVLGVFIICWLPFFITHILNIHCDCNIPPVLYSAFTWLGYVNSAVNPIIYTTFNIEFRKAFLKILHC
Method: To evaluate in radioligand binding assays the activity of compounds of the invention, human recombinant dopamine D2L receptor expressed in Chinese hamster ovary (CHO) cells (Grandy, D. K. et al. Proc. Natl. Acad. Sci. USA. 86:9762, 1989; Hayes, G. et al., Mol. Endocrinol. 6:920, 1992) in a modified Tris-HCl buffer (50 mM Tris-HCl, pH 7.4, 1.4 mM Ascorbic Acid, 0.001% BSA, 150 mM NaCl) was used. Compounds of the invention were incubated with 0.16 nM [^3H]Spiperone for 120 min. at 25° C. Non-specific binding was estimated in the presence of 10 μM Haloperidol. Receptor proteins were filtered and washed, the filters were then counted to determine [^3H]Spiperone specifically bound. Compounds were screened at 1 μM or lower, using 1% DMSO as vehicle. Biochemical assay results are presented as the percent inhibition of specific binding in Table 5.

[3] = molecular target: T3, human recombinant serotonin (5-Hydroxytryptamine) 5-HT2C receptor (Homo sapiens, UniProt P28335); experiment: Serotonin 5-HT2C radioligand binding ([3H]Mesulergine); details: compound at 1 μM; read-out: Serotonin (1 μM) 5-HT2C, percent inhibition of specific binding
T3 construct: expressed in transfected cells; host or cells: CHO-K1 cells
T3 sequence (P28335 33-458): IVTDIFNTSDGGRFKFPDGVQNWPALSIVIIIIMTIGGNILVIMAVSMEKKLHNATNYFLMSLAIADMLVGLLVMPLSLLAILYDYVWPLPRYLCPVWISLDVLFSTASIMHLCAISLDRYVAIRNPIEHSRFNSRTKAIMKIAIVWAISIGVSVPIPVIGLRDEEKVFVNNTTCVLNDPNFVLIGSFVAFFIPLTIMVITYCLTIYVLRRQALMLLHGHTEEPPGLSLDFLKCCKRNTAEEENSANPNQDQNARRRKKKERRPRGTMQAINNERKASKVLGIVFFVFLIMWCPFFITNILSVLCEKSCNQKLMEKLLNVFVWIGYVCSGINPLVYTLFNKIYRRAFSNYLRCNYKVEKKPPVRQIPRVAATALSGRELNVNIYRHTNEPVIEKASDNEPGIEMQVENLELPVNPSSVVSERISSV
Method: To evaluate in radioligand binding assays the activity of compounds of the invention, human recombinant serotonin (5-Hydroxytryptamine) 5-HT2C receptor expressed in Chinese hamster ovary (CHO-K1) cells (Wolf, W. A. and Schutz, J. S., J. Neurochem. 69:1449, 1997) in a modified Tris-HCl buffer (50 mM Tris-HCl, pH 7.4, 0.1% Ascorbic Acid, 10 μM Pargyline) was used. Compounds of the invention were incubated with 1 nM [^3H]Mesulergine for 60 min. at 25° C. Non-specific binding was estimated in the presence of 1 μM Mianserin. Receptor proteins were filtered and washed, the filters were then counted to determine [^3H]Mesulergine specifically bound. Compounds were screened at 1 μM or lower, using 1% DMSO as vehicle. Biochemical assay results are presented as the percent inhibition of specific binding in Table 6.

[4] = molecular target: T4, human recombinant serotonin (5-Hydroxytryptamine) 5-HT2A receptor (Homo sapiens, UniProt P28223); experiment: Serotonin 5-HT2A radioligand binding ([3H]Ketanserin); details: compound at 1 μM; read-out: Serotonin (1 μM) 5-HT2A, percent inhibition of specific binding
T4 construct: expressed in transfected cells; host or cells: CHO-K1 cells
T4 sequence (P28223 whole entry): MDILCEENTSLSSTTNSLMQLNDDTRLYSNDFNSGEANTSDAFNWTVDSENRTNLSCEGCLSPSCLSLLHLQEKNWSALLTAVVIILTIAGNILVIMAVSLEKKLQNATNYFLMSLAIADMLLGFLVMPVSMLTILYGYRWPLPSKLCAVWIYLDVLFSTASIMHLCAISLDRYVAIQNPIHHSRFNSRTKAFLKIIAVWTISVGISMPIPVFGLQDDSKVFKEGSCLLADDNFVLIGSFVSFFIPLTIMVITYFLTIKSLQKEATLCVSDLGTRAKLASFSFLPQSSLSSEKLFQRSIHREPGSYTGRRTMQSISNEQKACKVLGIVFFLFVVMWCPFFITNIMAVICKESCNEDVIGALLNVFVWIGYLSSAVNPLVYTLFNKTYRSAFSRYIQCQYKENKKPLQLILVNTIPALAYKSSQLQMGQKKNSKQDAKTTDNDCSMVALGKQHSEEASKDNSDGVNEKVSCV
Method: To evaluate in radioligand binding assays the activity of compounds of the invention, human recombinant serotonin (5-Hydroxytryptamine) 5-HT2A receptor expressed in Chinese hamster ovary (CHO-K1) cells (Bonhaus, D. W. et al. Br. J. Pharmacol. 115:622, 1995; Saucier, C. and Albert, P. R., J. Neurochem. 68:1998, 1997) in a 50 mM Tris-HCl buffer, pH 7.4, was used. Compounds of the invention were incubated with 0.5 nM [^3H]Ketanserin for 60 min. at 25° C. Non-specific binding was estimated in the presence of 1 μM Mianserin. Receptor proteins were filtered and washed, the filters were then counted to determine [^3H]Ketanserin specifically bound. Compounds were screened at 1 μM or lower, using 1% DMSO as vehicle. Biochemical assay results are presented as the percent inhibition of specific binding in Table 6.

[5] = molecular target: T5, human recombinant histamine H2 receptor (Homo sapiens, UniProt P25021); experiment: Histamine H2 radioligand binding ([125I]Aminopotentidine); details: compound at 1 μM; read-out: Histamine Binding (1 μM) H2, percent inhibition of specific binding
T5 construct: expressed in transfected cells; host or cells: CHO-K1 cells
T5 sequence (P25021 whole entry): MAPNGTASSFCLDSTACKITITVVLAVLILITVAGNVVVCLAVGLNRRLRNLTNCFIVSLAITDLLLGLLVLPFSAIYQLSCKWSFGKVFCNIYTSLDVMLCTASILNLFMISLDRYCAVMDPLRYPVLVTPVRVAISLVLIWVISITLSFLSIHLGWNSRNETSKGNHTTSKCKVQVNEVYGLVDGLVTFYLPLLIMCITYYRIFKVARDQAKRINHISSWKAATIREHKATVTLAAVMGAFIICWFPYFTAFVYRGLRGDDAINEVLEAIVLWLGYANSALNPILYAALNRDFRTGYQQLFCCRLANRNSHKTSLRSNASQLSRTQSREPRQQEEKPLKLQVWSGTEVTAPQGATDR
Method: To evaluate in radioligand binding assays the activity of compounds of the invention, human recombinant histamine H2 receptor expressed in Chinese hamster ovary (CHO) K1 cells (Ruat, M., Proc. Natl. Acad. Sci. USA. 87(5):1658, 1990) in a 50 mM Phosphate buffer, pH 7.4 was used. Compounds of the invention were incubated with 0.1 nM [^125I]Aminopotentidine for 120 min. at 25° C. Non-specific binding was estimated in the presence of 3 μM Tiotidine. Receptor proteins were filtered and washed, the filters were then counted to determine [^125I]Aminopotentidine specifically bound. Compounds were screened at 1 μM or lower, using 1% DMSO as vehicle. Biochemical assay results are presented as the percent inhibition of specific binding in Table 6.

[6] = molecular target: T6, human recombinant serotonin (5-Hydroxytryptamine) 5-HT6 receptor (Homo sapiens, UniProt P50406); experiment: Serotonin 5-HT6 radioligand binding ([3H]LSD); details: compound at 1 μM; read-out: Serotonin (1 μM) 5-HT6, percent inhibition of specific binding
T6 construct: expressed in transfected cells; host or cells: human HeLa cells
T6 sequence (P50406 whole entry): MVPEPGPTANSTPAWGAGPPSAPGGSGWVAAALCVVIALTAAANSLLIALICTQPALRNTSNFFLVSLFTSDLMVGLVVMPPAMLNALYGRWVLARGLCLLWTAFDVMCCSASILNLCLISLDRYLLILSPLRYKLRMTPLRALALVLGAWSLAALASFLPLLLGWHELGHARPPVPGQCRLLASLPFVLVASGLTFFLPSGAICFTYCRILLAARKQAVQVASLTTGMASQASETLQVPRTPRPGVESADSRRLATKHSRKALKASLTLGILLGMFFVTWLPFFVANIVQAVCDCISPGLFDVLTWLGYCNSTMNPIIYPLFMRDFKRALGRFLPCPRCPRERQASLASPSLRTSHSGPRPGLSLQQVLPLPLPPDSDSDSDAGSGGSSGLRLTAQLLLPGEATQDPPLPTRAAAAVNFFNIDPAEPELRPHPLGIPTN
Method: To evaluate in radioligand binding assays the activity of compounds of the invention, human recombinant serotonin (5-Hydroxytryptamine) 5-HT6 receptor expressed in human HeLa cells (Monsma, F. J. Jr. et al., Mol. Pharmacol. 43:320, 1993) in a modified Tris-HCl buffer (50 mM Tris-HCl, pH 7.4, 150 mM NaCl, 2 mM Ascorbic Acid, 0.001% BSA) was used. Compounds of the invention were incubated with 1.5 nM [3H]Lysergic acid diethylamide (LSD) for 120 min. at 37° C. Non-specific binding was estimated in the presence of 5 μM Serotonin (5-HT). Receptor proteins were filtered and washed, the filters were then counted to determine [3H]LSD specifically bound. Compounds were screened at 1 μM or lower, using 1% DMSO as vehicle. Biochemical assay results are presented as the percent inhibition of specific binding in Table 6.

Row | Structure (SMILES) | inhibition at 1 µM [1] | inhibition at 1 µM [2] | inhibition at 1 µM [3] | inhibition at 1 µM [4] | inhibition at 1 µM [5] | inhibition at 1 µM [6]
1 | C/C(=C\n1c2c(c3cc(Cl)ccc31)CCN(C)CC2)c1ccccc1F [Compound No. 243, (E)-9-chloro-6-(2-(2-fluorophenyl)prop-1-enyl)-3-methyl-1,2,3,4,5,6-hexahydroazepino[4,5-b]indole] | 93% | 32% | 102% | 98% | 84% | 99%
2 | C/C(=C/n1c2c(c3cc(Cl)ccc31)CCN(C)CC2)c1ccccc1Cl [Compound No. 244, (Z)-9-chloro-6-(2-(2-chlorophenyl)prop-1-enyl)-3-methyl-1,2,3,4,5,6-hexahydroazepino[4,5-b]indole] | 102% | 43% | 101% | 100% | 99% | 103%
3 | C/C(=C\n1c2c(c3cc(Cl)ccc31)CCN(C)CC2)c1ccccc1Cl [Compound No. 245, (E)-9-chloro-6-(2-(2-chlorophenyl)prop-1-enyl)-3-methyl-1,2,3,4,5,6-hexahydroazepino[4,5-b]indole] | 96% | 16% | 99% | 99% | 88% | 97%
4 | C/C(=C\n1c2c(c3cc(Cl)ccc31)CCN(C)CC2)c1cccnc1 [Compound No. 246, (E)-9-chloro-3-methyl-6-(2-(pyridin-3-yl)prop-1-enyl)-1,2,3,4,5,6-hexahydroazepino[4,5-b]indole] | 96% | 14% | 99% | 98% | 48% | 94%
5 | C/C(=C\n1c2c(c3cc(C)ccc31)CCN(C)CC2)c1cccnc1 [Compound No. 247, (E)-3,9-dimethyl-6-(2-(pyridin-3-yl)prop-1-enyl)-1,2,3,4,5,6-hexahydroazepino[4,5-b]indole] | 82% | 8% | 99% | 98% | 36% | 74%
6 | C/C(=C\n1c2c(c3cc(Cl)ccc31)CCN(C)CC2)c1ccncc1 [Compound No. 248, (E)-9-chloro-3-methyl-6-(2-(pyridin-4-yl)prop-1-enyl)-1,2,3,4,5,6-hexahydroazepino[4,5-b]indole] | 88% | 81% | 101% | 99% | 44% | 103%
7 | C/C(=C/n1c2c(c3cc(Cl)ccc31)CCN(C)CC2)c1cccc(F)c1 [Compound No. 249, (Z)-9-chloro-6-(2-(3-fluorophenyl)prop-1-enyl)-3-methyl-1,2,3,4,5,6-hexahydroazepino[4,5-b]indole] | 98% | 35% | 98% | 100% | 97% | 101%
8 | C/C(=C\n1c2c(c3cc(Cl)ccc31)CCN(C)CC2)c1cccc(F)c1 [Compound No. 250, (E)-9-chloro-6-(2-(3-fluorophenyl)prop-1-enyl)-3-methyl-1,2,3,4,5,6-hexahydroazepino[4,5-b]indole] | 93% | 15% | 99% | 100% | 85% | 99%
9 | C/C(=C/n1c2c(c3cc(C)ccc31)CCN(C)CC2)c1cccc(F)c1 [Compound No. 251, (Z)-6-(2-(3-fluorophenyl)prop-1-enyl)-3,9-dimethyl-1,2,3,4,5,6-hexahydroazepino[4,5-b]indole] | 96% | 35% | 99% | 101% | 95% | 99%
10 | C/C(=C\n1c2c(c3cc(C)ccc31)CCN(C)CC2)c1cccc(F)c1 [Compound No. 252, (E)-6-(2-(3-fluorophenyl)prop-1-enyl)-3,9-dimethyl-1,2,3,4,5,6-hexahydroazepino[4,5-b]indole] | 93% | 19% | 87% | 96% | 87% | 98%
11 | C/C(=C\n1c2c(c3cc(C)ccc31)CCN(C)CC2)c1ccncc1 [Compound No. 253, (E)-3,9-dimethyl-6-(2-(pyridin-4-yl)prop-1-enyl)-1,2,3,4,5,6-hexahydroazepino[4,5-b]indole] | 32% | 55% | 101% | 102% | 31% | 103%
12 | COc1ccc(C#Cn2c3c(c4cc(Cl)ccc42)CCN(C)CC3)cc1F [Compound No. 283, 9-chloro-6-((3-fluoro-4-methoxyphenyl)ethynyl)-3-methyl-1,2,3,4,5,6-hexahydroazepino[4,5-b]indole] | 12% | 12% | 100% | 90% | 83% | 40%
